Reference: ChEMBL document CHEMBL1201862, “PubChem BioAssay data set” (2004)
Structures can show the parent of a compound that is named as a salt. Calls of active or inactive are those of the source. Cut-off read from the data, not from the text of the source, for most assays here: actives have a measured EC50 and inactives only a lower limit.

Assays:
[1] = NIH-3T3 fibroblast cytotoxicity, dose response, cytotoxicity control, cell-based, fluorescence, Alamar Blue, secondary assay (AID 2327); type: functional;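 note: NIH-3T3 mouse fibroblasts cultured with fluconazole at 8 µg/mL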
[2] = C. albicans growth with fluconazole, confirmation, fluorescence, retest (AID 2467); type: functional, cell-based
[3] = biological target: T1, Heat shock factor protein 1 (Mus musculus, UniProt P38532); experiment: HSF1 potentiators in luciferase reporter cells, confirmation, cell-based, NIH3T3, luminescence, dose retest (AID 435004); type: functional;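 note: stress induced by proteasome inhibitor MG132 added 30 min after compound; luciferase reporter driven by HSF1 response element in NIH3T3 cells; actives raise luminescence as potentiators of the MG132 stress response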
T1 sequence (P38532 whole entry): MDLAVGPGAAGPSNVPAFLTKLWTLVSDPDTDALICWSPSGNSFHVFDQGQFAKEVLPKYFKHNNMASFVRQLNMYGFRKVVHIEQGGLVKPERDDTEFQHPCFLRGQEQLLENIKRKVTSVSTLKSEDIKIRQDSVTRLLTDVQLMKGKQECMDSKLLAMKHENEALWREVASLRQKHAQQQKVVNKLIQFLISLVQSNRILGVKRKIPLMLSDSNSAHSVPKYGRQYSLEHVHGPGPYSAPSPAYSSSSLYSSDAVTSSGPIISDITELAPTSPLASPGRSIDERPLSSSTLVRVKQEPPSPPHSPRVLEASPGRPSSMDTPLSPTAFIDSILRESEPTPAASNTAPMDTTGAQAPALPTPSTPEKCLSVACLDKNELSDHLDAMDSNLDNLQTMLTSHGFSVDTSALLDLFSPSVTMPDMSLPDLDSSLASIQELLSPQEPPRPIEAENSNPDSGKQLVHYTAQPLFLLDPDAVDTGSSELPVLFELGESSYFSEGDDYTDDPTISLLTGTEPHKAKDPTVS

[4] = HEp-2 cell cytotoxicity, dose response, cytotoxicity control for RSV inhibitor project, HTS (AID 2410); type: functional; details: human respiratory syncytial virus
[5] = biological target: T2, Corticotropin-releasing factor receptor 2/Corticotropin-releasing factor-binding protein (Homo sapiens, UniProt P24387+Q13324); experiment: Dose Response confirmation of uHTS hits for small molecule antagonists of the CRF-binding protein and CRF-R2 receptor complex.; type: functional; details: read-out: IC50_Mean
T2 sequence (Q13324 whole entry): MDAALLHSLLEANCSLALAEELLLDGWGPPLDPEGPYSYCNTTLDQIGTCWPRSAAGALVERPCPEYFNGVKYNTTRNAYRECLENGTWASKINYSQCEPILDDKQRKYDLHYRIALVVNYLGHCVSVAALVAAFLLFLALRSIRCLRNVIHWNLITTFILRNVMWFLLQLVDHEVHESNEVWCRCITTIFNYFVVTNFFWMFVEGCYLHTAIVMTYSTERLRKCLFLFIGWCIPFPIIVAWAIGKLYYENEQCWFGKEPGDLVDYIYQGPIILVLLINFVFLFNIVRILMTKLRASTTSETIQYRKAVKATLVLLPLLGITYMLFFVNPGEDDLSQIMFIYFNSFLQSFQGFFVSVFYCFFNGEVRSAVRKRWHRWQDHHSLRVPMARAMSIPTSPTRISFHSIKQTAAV
T2 sequence (P24387 whole entry): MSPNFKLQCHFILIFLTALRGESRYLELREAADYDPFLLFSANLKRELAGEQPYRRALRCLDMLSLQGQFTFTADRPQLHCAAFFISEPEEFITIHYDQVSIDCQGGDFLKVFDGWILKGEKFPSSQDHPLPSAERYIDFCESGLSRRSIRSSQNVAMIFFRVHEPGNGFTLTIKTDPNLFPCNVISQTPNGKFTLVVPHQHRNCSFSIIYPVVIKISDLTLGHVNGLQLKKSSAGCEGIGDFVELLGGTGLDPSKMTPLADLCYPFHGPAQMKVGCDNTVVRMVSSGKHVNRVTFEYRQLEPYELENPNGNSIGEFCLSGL

[6] = biological target: T2, Corticotropin-releasing factor receptor 2/Corticotropin-releasing factor-binding protein; experiment: activators of CRF receptor 2 with binding protein – uHTS hits, confirmation (AID 602473); type: functional; details: read-out: EC50_Mean
[7] = biological target: FAD-linked sulfhydryl oxidase ALR (Homo sapiens, UniProt P55789); experiment: inhibitors of human ALR sulfhydryl oxidase, dose response, biochemical, H2O2 detection, luminescence, cherry-pick (AID 493248)
[8] = Luminescence Cell-Based Dose Retest to Confirm Inhibitors of Cancer Stem Cells. [Related pubchem assays (depositor defined):AID2717, AID2721]; type: functional; details: Homo sapiens
[9] = biological target: T3, RNA-binding protein pos-1 (Caenorhabditis elegans, UniProt G5EF15); experiment: inhibitors of POS-1/mex-3 RNA binding, dose response, biochemical, fluorescence polarization (AID 1964);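 note: purified POS-1 fused to maltose binding protein made in E. coli; potency of compounds blocking POS-1 binding to fluorescent RNA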
T3 sequence (G5EF15 whole entry): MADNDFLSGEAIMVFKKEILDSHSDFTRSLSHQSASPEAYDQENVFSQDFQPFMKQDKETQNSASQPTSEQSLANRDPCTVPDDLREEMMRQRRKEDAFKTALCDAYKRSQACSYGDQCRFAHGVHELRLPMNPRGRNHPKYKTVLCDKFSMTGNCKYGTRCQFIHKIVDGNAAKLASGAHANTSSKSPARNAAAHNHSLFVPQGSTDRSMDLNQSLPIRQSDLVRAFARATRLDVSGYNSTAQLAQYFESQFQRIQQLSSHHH

[10] = biological target: T4, Zinc finger protein mex-5 (Caenorhabditis elegans, UniProt Q9XUB2); experiment: MEX-5/TCR-2 RNA interaction inhibitors, dose response, biochemical, C. elegans, fluorescence polarization (AID 1960)
T4 sequence (Q9XUB2 whole entry): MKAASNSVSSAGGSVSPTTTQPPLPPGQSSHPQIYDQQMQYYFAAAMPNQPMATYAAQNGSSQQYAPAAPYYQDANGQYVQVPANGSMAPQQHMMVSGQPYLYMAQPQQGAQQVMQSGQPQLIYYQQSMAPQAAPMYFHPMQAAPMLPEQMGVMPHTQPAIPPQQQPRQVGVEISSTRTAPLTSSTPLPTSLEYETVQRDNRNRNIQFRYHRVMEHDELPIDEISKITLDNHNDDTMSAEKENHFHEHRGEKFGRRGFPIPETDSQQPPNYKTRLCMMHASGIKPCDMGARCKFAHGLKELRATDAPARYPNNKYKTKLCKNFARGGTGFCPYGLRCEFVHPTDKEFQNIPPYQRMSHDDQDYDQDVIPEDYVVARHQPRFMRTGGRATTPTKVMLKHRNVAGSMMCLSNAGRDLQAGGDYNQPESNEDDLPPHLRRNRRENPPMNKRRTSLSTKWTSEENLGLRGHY

[11] = system: Streptococcus sp. 'group A'; experiment: growth inhibition of control SK(-) GAS strain, dose response, counter-screen for streptokinase expression inhibitor project, luminescence, kanamycin, BacTiterGlo, confirmation (AID 1900); type: functional, organism-based
[12] = biological target: T5, Streptokinase A (Streptococcus pyogenes serotype M1, UniProt P10520); experiment: S. pyogenes streptokinase expression inhibitors, potency, dose response, plasminogen activation absorbance, OD405 (AID 1914); type: functional, Streptococcus pyogenes M1 GAS;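 note: secreted streptokinase activity via plasminogen activation per viability signal from cell pellet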
T5 sequence (P10520 whole entry): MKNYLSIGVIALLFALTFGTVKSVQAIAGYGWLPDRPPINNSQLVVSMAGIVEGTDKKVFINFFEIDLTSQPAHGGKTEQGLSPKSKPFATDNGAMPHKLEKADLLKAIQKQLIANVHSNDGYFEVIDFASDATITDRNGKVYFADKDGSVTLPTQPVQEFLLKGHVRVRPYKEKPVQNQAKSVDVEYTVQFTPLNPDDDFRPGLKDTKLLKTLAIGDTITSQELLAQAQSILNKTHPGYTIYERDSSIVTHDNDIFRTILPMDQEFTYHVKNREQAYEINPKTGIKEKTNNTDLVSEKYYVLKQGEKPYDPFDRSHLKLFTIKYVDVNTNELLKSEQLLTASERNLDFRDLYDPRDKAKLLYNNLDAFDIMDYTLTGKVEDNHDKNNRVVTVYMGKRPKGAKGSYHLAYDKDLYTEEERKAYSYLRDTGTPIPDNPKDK

[13] = system: Streptococcus; experiment: Group A Streptococcus viability loss, dose response, counter-screen for streptokinase expression inhibitor project, luminescence, BacTiterGlo (AID 1915); type: functional, organism-based;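 note: potency for reduction of bacterial viability or growth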
[14] = inhibitors of firefly luciferase expression or activity, dose response, H4 neuroglioma cells, luminescence (AID 1990); type: functional, cell-based
[15] = Luminescence Cell-Based Dose Response HTS to Identify Inhibitors of 5'UTR Stem-Loop Driven Prion Protein mRNA Translation in H4 Neuroglioblastoma Cells. [Related pubchem assays: 1827 (Project Summary), 1813 (Primary HTS)]; type: functional
[16] = inhibitors of SNCA 5'UTR-driven reporter translation, confirmation, H4 neuroglioma cells, luminescence (AID 1988); type: functional, cell-based

Sequence of FAD-linked sulfhydryl oxidase ALR (P55789 whole entry): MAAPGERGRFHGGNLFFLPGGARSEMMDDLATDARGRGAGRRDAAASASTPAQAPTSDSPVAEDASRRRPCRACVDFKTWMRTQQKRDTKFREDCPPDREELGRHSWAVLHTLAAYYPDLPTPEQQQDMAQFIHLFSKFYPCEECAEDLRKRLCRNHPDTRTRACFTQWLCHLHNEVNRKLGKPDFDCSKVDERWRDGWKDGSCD

CC1=CC2=C(OC1N(C)C)c1cccc3cccc(c13)C2=O (stereo not given)
EC50 [1]: > 150 µM (inactive) | EC50 [2]: > 38 µM (not active) | EC50 [3]: > 260 µM (inactive)

O=C(Cn1c(=O)sc2ccccc21)Nc1nc2c(s1)CCCC2
CC50 [4]: > 50 µM (active)

N#C/C(=C(/O)COc1ccc(Cl)cc1)c1nc2ccccc2s1
EC50 [1]: 93.5 µM (active) | EC50 [2]: 0.191 µM (active) | IC50 [5]: < 0.368 µM (active) | EC50 [6]: > 53 µM (inactive)

Nc1cc(=O)[nH]n1C1CCN(c2ccccc2)CC1
AC50 [7]: 2.61 µM (active)

COc1cc(/C=C/c2noc(-c3ccccc3O)n2)ccc1OC(C)=O
AC50 [8]: 3.44 µM (active)

CN(C)c1c([N+](=O)[O-])cc2[nH]c(O)nc2c1[N+](=O)[O-]
CC50 [4]: 24.7 µM (active)

Cc1ccccc1-n1c(-c2ccc(Cl)cc2)cnc1SCC(=O)NC1CCS(=O)(=O)C1 (stereo not given)
EC50 [3]: > 260 µM (inactive)

COc1ccc(CC(=O)ONC(=N)c2cccc([N+](=O)[O-])c2)cc1
IC50 [5]: > 47.1 µM (inactive) | EC50 [6]: > 53 µM (inactive)

CCOC(=O)c1c(-c2cccc(Cl)c2)n[nH]c1N1C(=O)Nc2ccccc2N1O
IC50 [5]: > 47.1 µM (inactive) | EC50 [6]: > 53 µM (inactive)

N#Cc1ccsc1NC(=O)CN1CCN(S(=O)(=O)c2ccc3ccccc3c2)CC1
EC50 [3]: > 260 µM (inactive)

CCN(CCNC(=O)CN1CCN(Cc2ccc(Cl)cc2)C1=O)c1ccccc1
EC50 [3]: > 260 µM (inactive)

CCOC(=O)Cn1c2c(c(-c3ccccc3OC)cc1=O)CCCC2
IC50 [5]: > 47.1 µM (inactive) | EC50 [6]: > 53 µM (inactive)

COCCCNC(CC(=O)Nc1cc(C)cc(C)c1)C(=O)O (stereo not given)
EC50 [9]: > 300 µM (not active) | EC50 [10]: > 300 µM (not active)

O=S(=O)(NCC(c1ccco1)N1CCc2ccccc21)c1ccccc1 (stereo not given)
AC50 [7]: 2.49 µM (active)

CCOc1ccc(S(=O)(=O)Nc2cccnc2)cc1
IC50 [5]: > 47.1 µM (inactive) | EC50 [6]: > 53 µM (inactive)

Cc1ccc(S(=O)(=O)Nc2cc(C(=O)Nc3cc(C)cc(C)c3)ccc2Cl)cc1
IC50 [5]: > 47.1 µM (inactive) | EC50 [6]: > 53 µM (inactive)

CCN(CC)c1ccc(CN(C(=O)c2cc(OC)c(OC)c(OC)c2)C2CCS(=O)(=O)C2)cc1 (stereo not given)
AC50 [7]: 9.07 µM (active)

CCc1nc(SCC(=O)Nc2ccccc2OC)c2c(C)c(C)sc2n1
CC50 [4]: 26 µM (active) | EC50 [11]: 8.64 µM (active) | EC50 [12]: > 150 µM (not active) | EC50 [13]: > 150 µM (not active)

CCOC(=O)c1c(NC(=O)c2nn(CC)cc2Br)c(C#N)nn1-c1ccccc1
EC50 [14]: 22.5 µM (active) | EC50 [15]: > 120 µM (not active) | EC50 [16]: > 120 µM (not active) | EC50 [3]: > 260 µM (inactive)

CCCCN(C)C(=O)C1CCC(CNS(=O)(=O)c2ccc3c(c2)CC(C)N3C(=O)C2CC2)CC1 (stereo not given)
EC50 [3]: > 260 µM (inactive)

NC(=O)c1ccc2nc(-c3ccccc3)c(-c3ccccc3)nc2c1
IC50 [5]: > 47.1 µM (inactive) | EC50 [6]: > 53 µM (inactive)

Cc1cc(C)n2nc(N)c(N=Nc3cccc(Cl)c3)c2n1
EC50 [3]: > 260 µM (inactive)

CCOC(=O)c1c(C)[nH]c(C(=O)COC(=O)c2ccccc2NC(=O)c2ccco2)c1C
CC50 [4]: > 50 µM (active)

CCCc1n[nH]c2c1C(c1cc(OC)ccc1F)C(C#N)=C(N)O2 (stereo not given)
EC50 [3]: > 260 µM (inactive)

C=CCn1c(S)nnc1Cc1cccc2ccccc12
AC50 [7]: 23.3 µM (active)

COc1ccnc(N2CCN(c3ccccc3)CC2)c1C#N
EC50 [1]: > 160 µM (inactive) | EC50 [2]: > 38 µM (not active) | AC50 [7]: 1.27 µM (active)

CC(C)c1ccc(/C=C2\C(=N)N3N=C(CC(=O)N4CCCCC4)SC3=NC2=O)cc1
AC50 [7]: 5.61 µM (active)

NC(=O)c1ccc(NC(=O)COC(=O)c2c3c(nc4ccccc24)/C(=C\c2cccs2)CCC3)cc1
AC50 [8]: 10.4 µM (active)

COc1ccc2sc(-c3ccc(SC)cc3)c(C#CCO)c2c1
AC50 [8]: 9.22 µM (active)

CCCCNC(=O)c1cn(CC)c2ccc(S(=O)(=O)N3CCCCCC3)cc2c1=O
IC50 [5]: > 47.1 µM (inactive) | EC50 [6]: > 53 µM (inactive)

COc1c2c(c(OC)c3ccccc13)[C@@]1(OC2)O[C@H](CCO)C[C@H](O)[C@H]1O
IC50 [5]: > 47.1 µM (inactive) | EC50 [6]: > 53 µM (inactive)

O=c1c2c(O)cc(-c3ccccc3)nc2[nH]n1-c1ccccc1
AC50 [7]: 3.54 µM (active)

Cc1occc1C(=O)N/N=C/C(Br)=C\c1ccccc1
CC50 [4]: 22.4 µM (active)

Cn1ccc(/C=N/NC2=NC(=O)CS2)n1
CC50 [4]: 24.5 µM (active)

Cc1cccc(/C=N/n2c(S)nnc2-c2ccccn2)c1
AC50 [7]: 67.5 µM (active)

C/C(=N\NC(=O)C1CC1)c1ccc(OC(F)F)cc1OC(F)F
CC50 [4]: 30.8 µM (active)

CN(CCOc1ccc(CC2SC(=O)NC2=O)cc1)c1ccccn1 (stereo not given) [ROSIGLITAZONE MALEATE]
IC50 [5]: > 47.1 µM (inactive) | EC50 [6]: > 53 µM (inactive)
